From patent publication US20230092890A1, “1, 3, 4-Oxadiazole derivative compounds as histone deacetylase 6 inhibitor, and the pharmaceutical composition comprising the same” (Chong Kun Dang Pharmaceutical Corp., priority 2019, published 2023)

Assays:
HDAC6 human recombinant = biological target: T1, HDAC6 human recombinant (Homo sapiens, UniProt Q9UBN7); experiment: HDAC enzyme activity inhibition (in vitro), HDAC6 assay; assay type: biochemical; conditions: samples at 0.1, 1, 10, 100 and 1000 nM; 37° C. 60 minutes; fluorescence Ex 390, Em 460; read-out: HDAC6 IC50
T1 construct: purchased Calbiochem 382180
T1 sequence (Q9UBN7 1-1215): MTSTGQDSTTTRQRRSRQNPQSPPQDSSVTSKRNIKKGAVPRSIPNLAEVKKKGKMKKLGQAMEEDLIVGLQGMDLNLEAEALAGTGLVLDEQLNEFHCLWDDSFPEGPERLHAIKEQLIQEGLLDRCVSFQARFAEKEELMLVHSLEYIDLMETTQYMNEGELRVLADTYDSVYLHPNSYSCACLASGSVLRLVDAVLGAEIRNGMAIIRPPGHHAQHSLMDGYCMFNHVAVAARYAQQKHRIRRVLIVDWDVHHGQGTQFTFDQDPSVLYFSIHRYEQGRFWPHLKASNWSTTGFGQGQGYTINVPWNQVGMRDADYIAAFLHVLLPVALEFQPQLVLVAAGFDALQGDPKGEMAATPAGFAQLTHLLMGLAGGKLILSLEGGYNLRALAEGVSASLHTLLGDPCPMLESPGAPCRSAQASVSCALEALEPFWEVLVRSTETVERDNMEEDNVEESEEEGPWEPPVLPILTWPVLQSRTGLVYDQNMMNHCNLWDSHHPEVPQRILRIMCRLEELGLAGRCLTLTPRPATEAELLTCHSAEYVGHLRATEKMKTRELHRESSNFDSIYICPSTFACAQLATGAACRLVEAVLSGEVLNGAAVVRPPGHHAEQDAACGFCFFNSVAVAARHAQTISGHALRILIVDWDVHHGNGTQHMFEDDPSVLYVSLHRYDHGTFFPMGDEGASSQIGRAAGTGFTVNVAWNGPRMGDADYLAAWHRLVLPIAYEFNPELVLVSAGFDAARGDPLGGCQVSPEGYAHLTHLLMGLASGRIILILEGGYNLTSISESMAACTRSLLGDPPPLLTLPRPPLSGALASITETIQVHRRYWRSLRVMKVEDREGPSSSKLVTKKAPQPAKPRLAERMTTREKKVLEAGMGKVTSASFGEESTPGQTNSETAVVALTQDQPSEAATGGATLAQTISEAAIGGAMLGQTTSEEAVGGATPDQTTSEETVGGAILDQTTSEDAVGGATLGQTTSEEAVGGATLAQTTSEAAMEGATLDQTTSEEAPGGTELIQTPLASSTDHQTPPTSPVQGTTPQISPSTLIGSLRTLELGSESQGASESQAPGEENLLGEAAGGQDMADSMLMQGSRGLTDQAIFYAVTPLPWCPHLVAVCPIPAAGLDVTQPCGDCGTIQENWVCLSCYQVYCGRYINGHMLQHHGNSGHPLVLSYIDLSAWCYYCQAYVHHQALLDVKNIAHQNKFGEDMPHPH
Method in brief: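 Fluorescence (Ex 390, Em 460) read after a 37° C, 60 min enzyme reaction and a further 30 min developer step at 37° C. Uses recombinant human HDAC6; HDAC1 arm dosed at 100, 1000, 10000 nM.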

HDAC1 = biological target: T2, HDAC1 (Homo sapiens, UniProt Q13547); experiment: HDAC enzyme activity inhibition (in vitro), HDAC1 Fluorimetric Drug Discovery Assay Kit; assay type: biochemical; conditions: samples at 100, 1000 and 10000 nM; 37° C. 60 minutes; fluorescence Ex 390, Em 460; read-out: HDAC1 IC50
T2 construct: purchased Enzolifesciences BML-AK511
Method in brief: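 Fluorescence read-out (Ex 390/Em 460) after developer step, 30 min at 37° C, following a 60-min 37° C enzyme reaction. Test concentrations: HDAC1 kit, 100–10000 nM (three levels); recombinant human HDAC6, 0.1–1000 nM (five levels).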

T2 sequence (Q13547 whole entry): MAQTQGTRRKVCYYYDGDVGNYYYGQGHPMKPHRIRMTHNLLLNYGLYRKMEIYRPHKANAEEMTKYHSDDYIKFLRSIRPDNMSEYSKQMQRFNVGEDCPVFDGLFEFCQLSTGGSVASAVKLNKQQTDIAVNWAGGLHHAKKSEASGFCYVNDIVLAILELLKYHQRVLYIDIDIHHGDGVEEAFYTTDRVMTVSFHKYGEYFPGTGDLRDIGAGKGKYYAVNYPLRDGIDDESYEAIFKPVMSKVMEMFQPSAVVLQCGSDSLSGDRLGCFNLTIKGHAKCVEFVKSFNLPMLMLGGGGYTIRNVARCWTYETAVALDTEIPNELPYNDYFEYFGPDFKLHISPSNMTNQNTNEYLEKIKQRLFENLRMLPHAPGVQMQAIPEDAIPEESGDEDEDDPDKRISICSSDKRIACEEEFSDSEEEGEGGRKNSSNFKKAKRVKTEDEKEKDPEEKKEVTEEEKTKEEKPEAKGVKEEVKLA

IC50 (HDAC6 human recombinant) [nM]	IC50 (HDAC1) [nM]	Structure (SMILES)
5	> 10000	O=c1n(Cc2ccc(-c3nnc(C(F)F)o3)cn2)c2cc(F)c(-c3cn[nH]c3)cc2n1[C@@H]1CCCN(C2COC2)C1 [Compound 296, (R)-1-((5-(5-(difluoromethyl)-1,3,4-oxadiazole-2-yl)pyridine-2-yl)methyl)-6-fluoro-3-(1-(oxetan-3-yl)piperidine-3-yl)-5-(1H-pyrazole-4-yl)-1,3-dihydro-2H-benzo[d]imidazole-2-one]
31	> 10000	CC(=O)N1CCC(n2c(=O)n(Cc3ccc(-c4nnc(C(F)F)o4)cn3)c3cc(F)c(F)cc32)CC1 [Compound 173, 1-(1-acetylpiperidine-4-yl)-3-((5-(5-(difluoromethyl)-1,3,4-oxadiazole-2-yl)pyridine-2-yl)methyl)-5,6-difluoro-1,3-dihydro-2H-benzo[d]imidazole-2-one]
68	> 10000	CC(=O)N1CCC(n2c(=O)n(Cc3ccc(-c4nnc(C(F)F)o4)cn3)c3ccc(Cl)cc32)CC1 [Compound 181, 3-(1-acetylpiperidine-4-yl)-5-chloro-1-((5-(5-(difluoromethyl)-1,3,4-oxadiazole-2-yl)pyridine-2-yl)methyl)-1,3-dihydro-2H-benzo[d]imidazole-2-one]
271	> 10000	CN1CCC(n2c(=O)n(Cc3ccc(-c4nnc(C(F)F)o4)cn3)c3cc(F)c(-c4cc5ccccc5n4C(=O)OC(C)(C)C)cc32)CC1 [Compound 253, tert-butyl 2-(1-((5-(5-(difluoromethyl)-1,3,4-oxadiazole-2-yl)pyridine-2-yl)methyl)-6-fluoro-3-(1-methylpiperidine-4-yl)-2-oxo-2,3-dihydro-1H-benzo[d]imidazole-5-yl)-1H-indole-1-carboxylate]
672	> 10000	CC(C)(C)OC(=O)N1CCN(c2ncc(-c3cc4oc(=O)n(Cc5ccc(-c6nnc(C(F)F)o6)cn5)c4cc3F)cn2)CC1 [Compound 337, tert-butyl 4-(5-(3-((5-(5-(difluoromethyl)-1,3,4-oxadiazole-2-yl)pyridine-2-yl)methyl)-5-fluoro-2-oxo-2,3-dihydrobenzo[d]oxazole-6-yl)pyrimidine-2-yl)piperazine-1-carboxylate]
40	> 10000	Cn1c(=O)n(Cc2ccc(-c3nnc(C(F)F)o3)cn2)c2cc(F)c(-c3ccoc3)cc21 [Compound 168, 1-((5-(5-(difluoromethyl)-1,3,4-oxadiazole-2-yl)pyridine-2-yl)methyl)-6-fluoro-5-(furan-3-yl)-3-methyl-1,3-dihydro-2H-benzo[d]imidazole-2-one]
16	> 10000	O=c1sc2cc(Br)ccc2n1Cc1ccc(-c2nnc(C(F)F)o2)cn1 [Compound 230, 6-bromo-3-((5-(5-(difluoromethyl)-1,3,4-oxadiazole-2-yl)pyridine-2-yl)methyl)benzo[d]thiazole-2(3H)-one]
76	> 10000	O=c1n(Cc2ccc(-c3nnc(C(F)F)o3)cn2)c2ccc(F)cc2n1C1CCN(C2CCOCC2)CC1 [Compound 44, 1-((5-(5-(difluoromethyl)-1,3,4-oxadiazole-2-yl)pyridine-2-yl)methyl)-5-fluoro-3-(1-(tetrahydro-2H-pyran-4-yl)piperidine-4-yl)-1,3-dihydro-2H-benzo[d]imidazole-2-one]
19	> 10000	CN1CCC(n2c(=O)n(Cc3ccc(-c4nnc(C(F)F)o4)cn3)c3ccc(-c4ccco4)cc32)CC1 [Compound 138, 1-((5-(5-(difluoromethyl)-1,3,4-oxadiazole-2-yl)pyridine-2-yl)methyl)-5-(furan-2-yl)-3-(1-methylpiperidine-4-yl)-1,3-dihydro-2H-benzo[d]imidazole-2-one]
35	> 10000	O=c1n(Cc2ccc(-c3nnc(C(F)F)o3)cn2)c2c(F)cccc2n1C1CCN(C2COC2)CC1 [Compound 77, 3-((5-(5-(difluoromethyl)-1,3,4-oxadiazole-2-yl)pyridine-2-yl)methyl)-4-fluoro-1-(1-(oxetan-3-yl)piperidine-4-yl)-1,3-dihydro-2H-benzo[d]imidazole-2-one]
64	> 10000	CC(=O)N1CCC(n2c(=O)n(Cc3ccc(-c4nnc(C(F)F)o4)cn3)c3ccccc32)CC1 [Compound 187, 1-(1-acetylpiperidine-4-yl)-3-((5-(5-(difluoromethyl)-1,3,4-oxadiazole-2-yl)pyridine-2-yl)methyl)-1,3-dihydro-2H-benzo[d]imidazole-2-one]
23	> 10000	CCN1CCC(n2c(=O)n(Cc3ccc(-c4nnc(C(F)F)o4)cn3)c3ccc(-c4ccncc4)cc32)CC1 [Compound 283, 1-((5-(5-(difluoromethyl)-1,3,4-oxadiazole-2-yl)pyridine-2-yl)methyl)-3-(1-ethylpiperidine-4-yl)-5-(pyridine-4-yl)-1,3-dihydro-2H-benzo[d]imidazole-2-one]
138	> 10000	CN1CCC(n2c(=O)n(Cc3ccc(-c4nnc(C(F)F)o4)cc3F)c3ccc(C4CCN(S(C)(=O)=O)CC4)cc32)CC1 [Compound 158, 1-(4-(5-(difluoromethyl)-1,3,4-oxadiazole-2-yl)-2-fluorobenzyl)-3-(1-methylpiperidine-4-yl)-5-(1-(methylsulfonyl)piperidine-4-yl)-1,3-dihydro-2H-benzo[d]imidazole-2-one]
22	> 10000	Cn1c(=O)n(Cc2ccc(-c3nnc(C(F)F)o3)cn2)c2cc(F)c(-c3ccc(CN4CCOCC4)nc3)cc21 [Compound 330, 1-((5-(5-(difluoromethyl)-1,3,4-oxadiazole-2-yl)pyridine-2-yl)methyl)-6-fluoro-3-methy 1-5-(6-(morpholinomethyl)pyridine-3-yl)-1,3-dihydro-2H-benzo[d]imidazole-2-one]
84	> 10000	CN1CCC(n2c(=O)n(Cc3ccc(-c4nnc(C(F)F)o4)cc3F)c3cc(F)c(-c4ccccc4F)cc32)CC1 [Compound 116, 1-(4-(5-(difluoromethyl)-1,3,4-oxadiazole-2-yl)-2-fluorobenzyl)-6-fluoro-5-(2-fluorophenyl)-3-(1-methylpiperidine-4-yl)-1,3-dihydro-2H-benzo[d]imidazole-2-one]
264	> 10000	CN1CC(n2c(=O)n(Cc3ccc(-c4nnc(C(F)F)o4)cn3)c3ccccc32)C1 [Compound 7, 1-((5-(5-(difluoromethyl)-1,3,4-oxadiazole-2-yl)pyridine-2-yl)methyl)-3-(1-methylazetidine-3-yl)-1,3-dihydro-2H-benzo[d]imidazole-2-one]
684	> 10000	O=c1oc2ccccc2n1Cc1ccc(-c2nnc(C(F)F)o2)cc1F [Compound 245, 3-(4-(5-(difluoromethyl)-1,3,4-oxadiazole-2-yl)-2-fluorobenzyl)benzo[d]oxazole-2(3H)-one]
340	> 10000	CN1CCC(n2c(=O)n(Cc3ccc(-c4nnc(C(F)F)o4)cc3)c3ccccc32)CC1 [Compound 5, 1-(4-(5-(difluoromethyl)-1,3,4-oxadiazole-2-yl)benzyl)-3-(1-methylpiperidine-4-yl)-1,3-dihydro-2H-benzo[d]imidazole-2-one]
34	> 10000	COCC(C)N1CCC(n2c(=O)n(Cc3ccc(-c4nnc(C(F)F)o4)cn3)c3cc(F)ccc32)CC1 (centres unmarked) [Compound 56, 3-((5-(5-(difluoromethyl)-1,3,4-oxadiazole-2-yl)pyridine-2-yl)methyl)-5-fluoro-1-(1-(1-methoxypropane-2-yl)piperidine-4-yl)-1,3-dihydro-2H-benzo[d]imidazole-2-one]
